5 compounds from patent US5840684A, “Glycopeptide antibiotic derivatives” (Eli Lilly and Company, priority 1995, dated 1998) can be followed below.

Values after ≈ are worked out from the molar mass of the structure shown. Where only a bound is given, the exact number is not on record here.

Assay [1] relates to Staphylococcus haemolyticus 415. In words: broth micro-dilution MIC. It is filed as cell-based. The protocol:
(§1) The formula I compounds have in vitro and in vivo activity against Gram-positive pathogenic bacteria. The MIC's were determined using a standard broth micro-dilution assay.
For orientation: In broth dilution the organism is exposed to a series of concentrations in liquid medium.

The next assay has as its system Entercoccus faecium 180. In words: broth micro-dilution MIC. It is filed as cell-based. The note with it: Entercoccus faecium 180. The protocol: as §1
For assay [2], the system named is Enterococcus gallinarum 245. The assay is described as follows: broth micro-dilution MIC. It is filed as cell-based. The note with it: Enterococcus gallinarum 245. The protocol: as §1
For assay [3], the system named is Haemophilus influenzae RD. The assay is described as follows: broth micro-dilution MIC. It is filed as cell-based. The conditions noted are these: Haemophilus influenzae RD. As for the experimental part:
as §1

The test system of the next assay is Entercoccus faecium 2041. In words: broth micro-dilution MIC. It is filed as cell-based. The conditions noted are these: Entercoccus faecium 2041. As for the experimental part:
as §1

Assay [4] concerns Streptococcus pneumoniae P1. The assay is described as follows: broth micro-dilution MIC. It counts as cell-based. The protocol: as §1
For assay [5], the system named is Staphylococcus haemolyticus 105. The assay is described as follows: broth micro-dilution MIC. It is filed as cell-based. As for the experimental part: as §1
For assay [6], the system named is Staphylococcus epidermidis 270. In words: broth micro-dilution MIC. It counts as cell-based. The protocol: as §1
Assay [7] relates to vancomycin-susceptible enterococci. In words: broth micro-dilution, mean geometric MIC. It counts as cell-based, Enterococcus faecium and Enterococcus faecalis. The note with it: enterococci, 24-hour incubation.
The test system of assay [8] is Entercoccus faecium 180-1. The assay is described as follows: broth micro-dilution MIC. It is filed as cell-based. The protocol: (§2) The MIC's were determined using a standard broth micro-dilution assay.
For assay [9], the system named is Staphylococcus aureus 447. In words: broth micro-dilution MIC. It counts as cell-based. The protocol: as §2
The next assay relates to Entercoccus faecium 276. In words: broth micro-dilution MIC. It is filed as cell-based. The protocol: as §2
Assay [10] relates to Streptococcus pyogenes C203. The assay is described as follows: broth micro-dilution MIC. It is filed as cell-based. As for the experimental part:
as §2

In assay [11] the test system is Staphylococcus aureus SA1199A. The assay is described as follows: broth micro-dilution MIC. It is filed as cell-based. The protocol:
as §2

Assay [12] concerns Staphylococcus aureus X400. In words: broth micro-dilution MIC. It counts as cell-based. As for the experimental part:
as §2

Assay [13] has as its system Staphylococcus aureus S13E. It is filed as cell-based. As for the experimental part:
as §2

Assay [14] relates to vancomycin-resistant enterococci. The assay is described as follows: broth micro-dilution, mean geometric MIC. It is filed as cell-based, Enterococcus faecium and Enterococcus faecalis. The note with it: enterococci, 24-hour incubation.
A further assay relates to Streptococcus pyogenes. In words: mouse protection, experimentally-induced infection. It counts as in vivo. The conditions noted are these: mice infected with Streptococcus pyogenes, two doses.
The subject of another assay is Streptococcus pneumoniae. The assay is described as follows: mouse protection, experimentally-induced infection. It is filed as in vivo. The conditions noted are these: mice infected with Streptococcus pneumoniae, two doses.
Assay [15] relates to Staphylococcus aureus 491. The assay is described as follows: broth micro-dilution MIC. It counts as cell-based. The protocol: as §2
Assay [16] deals with Staphylococcus aureus X778. The assay is described as follows: broth micro-dilution MIC. It is filed as cell-based. As for the experimental part:
as §2

The test system of assay [17] is Staphylococcus aureus 489. The assay is described as follows: broth micro-dilution MIC. It is filed as cell-based. As for the experimental part:
as §2

Assay [18] relates to Staphylococcus aureus 446. The assay is described as follows: broth micro-dilution MIC. It counts as cell-based. As for the experimental part: as §2
In assay [19] the test system is Staphylococcus aureus SA1199. In words: broth micro-dilution MIC. It is filed as cell-based. As for the experimental part: as §2
For assay [20], the system named is Staphylococcus aureus SA1199B. It counts as cell-based. The protocol:
as §2

Turning to `CNC(CC(C)C)C(=O)NC1C(=O)NC(CC(N)=O)C(=O)NC2C(=O)NC3C(=O)NC(C(=O)NC(C(=O)O)c4cc(O)cc(O)c4-c4cc3ccc4O)C(OC3CC(C)(N)C(O)C(C)O3)c3ccc(c(Cl)c3)Oc3cc2cc(c3OC2OC(CO)C(O)C(O)C2OC2CC(C)(NCc3ccc(-c4ccc(Br)cc4)cc3)C(O)C(C)O2)Oc2ccc(cc2Cl)C1O` (stereo not drawn) [Compound 230], the MIC in assay [1] is 2 µg/mL (≈ 1.09 µM); in the assay on Entercoccus faecium 180, not above 0.06 µg/mL; in assay [2], 4 µg/mL (≈ 2.18 µM); in assay [3] it was 32 µg/mL (≈ 17.4 µM); against Entercoccus faecium 2041, not above 0.06 µg/mL; in assay [4], not above 0.06 µg/mL. In addition, the MIC is 1 µg/mL (≈ 0.544 µM) in [5]; 0.5 µg/mL (≈ 0.272 µM) in assay [6]; not above 0.06 µg/mL in [8]; 0.5 µg/mL (≈ 0.272 µM) in [9]; not above 0.06 µg/mL against Entercoccus faecium 276; not above 0.06 µg/mL in assay [10]. The values for the MIC in [11], in assay [12] and in [13] were not above 0.06 µg/mL, 0.5 µg/mL (≈ 0.272 µM) and 0.5 µg/mL (≈ 0.272 µM), respectively. Also, the “mean geometric MIC, Vancomycin Sensitive Strains” value in [7] stood at 0.031 µg/mL. Besides, the “mean geometric MIC, Vancomycin Resistant Strains” value in assay [14] amounted to 0.35 µg/mL. In addition, the ED50 in the assay with Streptococcus pyogenes was 0.046 mg/kg/2; with Streptococcus pneumoniae, 0.078 mg/kg/2.
As to `CNC(CC(C)C)C(=O)NC1C(=O)NC(CC(N)=O)C(=O)NC2C(=O)NC3C(=O)NC(C(=O)NC(C(=O)O)c4cc(O)cc(O)c4-c4cc3ccc4O)C(OC3CC(C)(N)C(O)C(C)O3)c3ccc(c(Cl)c3)Oc3cc2cc(c3OC2OC(CO)C(O)C(O)C2OC2CC(C)(NCc3cccc(OCC4CCCCC4)c3)C(O)C(C)O2)Oc2ccc(cc2Cl)C1O` (stereo not drawn) [Compound 123], the MIC was 1 µg/mL (≈ 0.557 µM) in [1]; 0.25 µg/mL (≈ 0.139 µM) with Entercoccus faecium 180; 1 µg/mL (≈ 0.557 µM) in assay [2]; 16 µg/mL (≈ 8.91 µM) in [3]; not above 0.06 µg/mL against Entercoccus faecium 2041; not above 0.06 µg/mL in [4]. Moreover, the MIC in [5] is 2 µg/mL (≈ 1.11 µM); in [6] it was 1 µg/mL (≈ 0.557 µM); in [15] it was not above 0.06 µg/mL; in assay [8] it was not above 0.06 µg/mL; in [16] it was 1 µg/mL (≈ 0.557 µM); in assay [9] it was 1 µg/mL (≈ 0.557 µM). Also, the MIC was 2 µg/mL (≈ 1.11 µM) in [17]; 0.25 µg/mL (≈ 0.139 µM) in the assay on Entercoccus faecium 276; not above 0.06 µg/mL in assay [10]; 2 µg/mL (≈ 1.11 µM) in [18]; 2 µg/mL (≈ 1.11 µM) in assay [19]; 1 µg/mL (≈ 0.557 µM) in assay [12]. The results for the MIC in assay [20] and in [13] were 0.5 µg/mL (≈ 0.279 µM) and not above 0.06 µg/mL, respectively. Besides, the “mean geometric MIC, Vancomycin Sensitive Strains” value in assay [7] came out at 0.041 µg/mL. Moreover, in [14], the “mean geometric MIC, Vancomycin Resistant Strains” value was 1.0 µg/mL. The ED50 is recorded as 0.076 mg/kg/2 in the assay with Streptococcus pyogenes and 0.039 mg/kg/2 with Streptococcus pneumoniae.
Consider `CNC(CC(C)C)C(=O)NC1C(=O)NC(CC(N)=O)C(=O)NC2C(=O)NC3C(=O)NC(C(=O)NC(C(=O)O)c4cc(O)cc(O)c4-c4cc3ccc4O)C(OC3CC(C)(N)C(O)C(C)O3)c3ccc(c(Cl)c3)Oc3cc2cc(c3OC2OC(CO)C(O)C(O)C2OC2CC(C)(NCc3ccc(OC(F)(F)C(F)F)cc3)C(O)C(C)O2)Oc2ccc(cc2Cl)C1O` (stereo not drawn) [Compound 121], for which the MIC in assay [1] is 2 µg/mL (≈ 1.11 µM); in the assay with Entercoccus faecium 180, not above 0.06 µg/mL; in assay [2], 2 µg/mL (≈ 1.11 µM); in assay [3] it was 16 µg/mL (≈ 8.9 µM); in the assay on Entercoccus faecium 2041, not above 0.06 µg/mL; in assay [4] it was not above 0.06 µg/mL. Besides, the MIC in [5] is 2 µg/mL (≈ 1.11 µM); in assay [6] it was 1 µg/mL (≈ 0.556 µM); in assay [15], not above 0.06 µg/mL; in assay [8] it was not above 0.06 µg/mL; in assay [16], 0.5 µg/mL (≈ 0.278 µM); in [9], 0.5 µg/mL (≈ 0.278 µM). Further, the MIC is 1 µg/mL (≈ 0.556 µM) in [17]; not above 0.06 µg/mL against Entercoccus faecium 276; not above 0.06 µg/mL in assay [10]; 2 µg/mL (≈ 1.11 µM) in [18]; 1 µg/mL (≈ 0.556 µM) in [19]; not above 0.06 µg/mL in assay [11]. Besides, the MIC in [20] is 0.25 µg/mL (≈ 0.139 µM); in assay [13] it was not above 0.06 µg/mL. Moreover, the “mean geometric MIC, Vancomycin Sensitive Strains” value in [7] amounted to 0.063 µg/mL. Moreover, the “mean geometric MIC, Vancomycin Resistant Strains” value in assay [14] was 1.0 µg/mL. The ED50 in the assay on Streptococcus pyogenes was 0.041 mg/kg/2; with Streptococcus pneumoniae, 0.047 mg/kg/2.
Regarding `CNC(CC(C)C)C(=O)NC1C(=O)NC(CC(N)=O)C(=O)NC2C(=O)NC3C(=O)NC(C(=O)NC(C(=O)O)c4cc(O)cc(O)c4-c4cc3ccc4O)C(OC3CC(C)(N)C(O)C(C)O3)c3ccc(c(Cl)c3)Oc3cc2cc(c3OC2OC(CO)C(O)C(O)C2OC2CC(C)(NCc3ccc(Cc4ccccc4)c(OC)c3)C(O)C(C)O2)Oc2ccc(cc2Cl)C1O` (stereo not drawn) [Compound 104], the MIC in [1] was 2 µg/mL (≈ 1.11 µM); against Entercoccus faecium 180 it was not above 0.06 µg/mL; in [2], 2 µg/mL (≈ 1.11 µM); in assay [3], 32 µg/mL (≈ 17.8 µM); in the assay with Entercoccus faecium 2041 it was not above 0.06 µg/mL; in assay [4], not above 0.06 µg/mL. Moreover, the MIC in assay [5] is 2 µg/mL (≈ 1.11 µM); in assay [15] it was not above 0.06 µg/mL; in assay [8], not above 0.06 µg/mL; in assay [16], not above 0.06 µg/mL; in assay [17], not above 0.06 µg/mL; against Entercoccus faecium 276, not above 0.06 µg/mL. Besides, the MIC was not above 0.06 µg/mL in assay [10]; not above 0.06 µg/mL in assay [18]; 2 µg/mL (≈ 1.11 µM) in [19]; not above 0.06 µg/mL in assay [11]; not above 0.06 µg/mL in assay [12]; 0.125 µg/mL (≈ 0.0693 µM) in assay [20]. In assay [13], this compound displayed an MIC not above 0.06 µg/mL. Also, the “mean geometric MIC, Vancomycin Sensitive Strains” value in assay [7] was 0.062 µg/mL. For the same compound, the “mean geometric MIC, Vancomycin Resistant Strains” value in assay [14] is 1.2 µg/mL. Also, the ED50 with Streptococcus pyogenes worked out at 0.12 mg/kg/2; with Streptococcus pneumoniae it was 0.041 mg/kg/2.
Turning to `C=CCCCCCCCCCNC1(C)CC(OC2C(Oc3c4cc5cc3Oc3ccc(cc3Cl)C(OC3CC(C)(N)C(O)C(C)O3)C3NC(=O)C(NC(=O)C5NC(=O)C(CC(N)=O)NC(=O)C(NC(=O)C(CC(C)C)NC)C(O)c5ccc(c(Cl)c5)O4)c4ccc(O)c(c4)-c4c(O)cc(O)cc4C(C(=O)O)NC3=O)OC(CO)C(O)C2O)OC(C)C1O` (stereo not drawn) [Compound 204], the MIC in assay [3] is 2 µg/mL (≈ 1.15 µM); in the assay with Entercoccus faecium 2041, not above 0.06 µg/mL; in assay [4], not above 0.06 µg/mL; in assay [5], 0.5 µg/mL (≈ 0.287 µM); in assay [6] it was not above 0.06 µg/mL; in [15] it was 0.5 µg/mL (≈ 0.287 µM). The MIC was 0.5 µg/mL (≈ 0.287 µM) in assay [16]; not above 0.06 µg/mL in [9]; not above 0.06 µg/mL against Entercoccus faecium 276; not above 0.06 µg/mL in assay [10]; 0.5 µg/mL (≈ 0.287 µM) in assay [13]. For the same compound, in assay [7], the “mean geometric MIC, Vancomycin Sensitive Strains” value came out at 0.031 µg/mL. Also, the “mean geometric MIC, Vancomycin Resistant Strains” value in assay [14] amounted to 0.71 µg/mL. Besides, the ED50 was less than 0.031 mg/kg/2 in the assay on Streptococcus pyogenes and 0.046 mg/kg/2 in the assay with Streptococcus pneumoniae.
